Assay results published in PMC4936272 (Bioorganic & medicinal chemistry letters, 2016).

Legend:
Male ICR mice = experiment: Mouse tail flick test; assay type: in vivo; conditions: for Analgesia in tail flick test: 50 mg/kg intraperitoneal (IP); for Analgesia in tail flick test, dose-response: lower doses than 50 mg/kg IP
FAAH = conditions: cited from earlier work
human FAAH = molecular target: T1, human FAAH (Homo sapiens, UniProt O00519); experiment: Reversibility of FAAH inactivation by exhaustive dialysis; conditions: 144 hrs dialysis at 4°C after complete inactivation
T1 sequence (O00519 34-579): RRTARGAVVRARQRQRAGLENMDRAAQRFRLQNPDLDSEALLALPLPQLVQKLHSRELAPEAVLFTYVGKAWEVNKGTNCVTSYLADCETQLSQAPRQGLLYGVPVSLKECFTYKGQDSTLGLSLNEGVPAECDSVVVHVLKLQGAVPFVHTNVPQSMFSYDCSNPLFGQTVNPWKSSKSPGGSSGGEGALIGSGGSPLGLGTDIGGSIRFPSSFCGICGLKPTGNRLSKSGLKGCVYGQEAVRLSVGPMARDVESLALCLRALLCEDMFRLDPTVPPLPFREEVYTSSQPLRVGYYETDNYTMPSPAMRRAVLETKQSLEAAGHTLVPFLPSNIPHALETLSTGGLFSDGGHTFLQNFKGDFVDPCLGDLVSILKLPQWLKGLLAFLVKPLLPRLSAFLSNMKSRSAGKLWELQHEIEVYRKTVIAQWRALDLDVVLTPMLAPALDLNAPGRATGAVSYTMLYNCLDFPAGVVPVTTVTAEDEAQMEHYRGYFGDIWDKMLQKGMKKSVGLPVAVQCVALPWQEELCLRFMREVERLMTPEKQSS

SMILES | Analgesia in tail flick test (Male ICR mice) | Analgesia in tail flick test, dose-response (Male ICR mice) | further results
O=C(Oc1cccnc1)N1CCC(c2nc(C3=NOC(c4ccccc4)C3)cs2)CC1 (stereo not shown) [Compound 1o] | did not produce analgesia |  | 
N#Cc1ccc(OC(=O)N2CCC(c3nc(C4=NOC(c5ccccc5)C4)cs3)CC2)cc1 (stereo not shown) [Compound 1b] | significant analgesic effects | clear dose-dependent effects down to 5 mg/kg | 
COc1ccc(OC(=O)N2CCC(c3nc(C4=NOC(c5ccccc5)C4)cs3)CC2)cc1 (stereo not shown) [Compound 1p] | did not produce analgesia |  | 
O=C(Nc1cccnc1)N1CCC(Cc2cccc(Oc3ccc(C(F)(F)F)cn3)c2)CC1 [PF-3845] |  |  | kinact reported for other chemotypes (FAAH): 0.0033 s⁻¹
O=C(Nc1cccnn1)N1CCC(c2nc(C3=NOC(c4ccccc4)C3)cs2)CC1 (stereo not shown) [Compound 2f] | significant analgesic effects | failed to produce significant analgesia | 
O=C(Nc1cnccn1)N1CCC(c2nc(C3=NOC(c4ccccc4)C3)cs2)CC1 (stereo not shown) [Compound 2e] | significant analgesic effects | failed to produce significant analgesia | 
O=C(Oc1ccccc1)N1CCC(c2nc(C3=NOC(c4ccccc4)C3)cs2)CC1 (stereo not shown) [Compound 1a, phenyl 4-[4-(4,5-dihydro-5-phenyl-3-isoxazolyl)-2-thiazolyl]-1-piperidinecarboxylate] | significant analgesic effects | failed to produce significant analgesia | 
O=C(Nc1ccccc1)N1CCN(c2nc(-c3ccccc3)ns2)CC1 [JNJ-1661010] |  |  | Recovery of FAAH activity after dialysis (human FAAH): ~30%
